In patent US12234477B2, “Scalable primate pluripotent stem cell aggregate suspension culture” (ViaCyte, Inc., priority 2008, dated 2025):
“Also recorded” adds a separate entry of the source.

Assays:
R1 mouse ES cells = test: Inhibition of ErbB1 and ErbB2 signaling in mouse ES cells, alkaline phosphatase staining; type: cell-based
Method: AG1478 and AG879 were used to examine the role of HRG/ErbB signaling in mouse ES cells. R1 mouse ES cells were maintained in standard conditions in DMEM, 10% FBS, 10% KSR, 0.5 U/mL penicillin, 0.5 U/mL streptomycin, 1×NEAA, 1 mM sodium pyruvate, 1000 U/mL LIF (ESGRO), 0.1 mM β-ME, and were passaged with 0.5% trypsin/EDTA. 2×10^5 cells/well were plated in 6 well trays on […]™ diluted at 1:1000. The day after plating, DMSO (carrier control), 1-50 μM AG1478, or 1-50 μM AG879 was added with fresh medium. The cells were cultured an additional 8 days, with daily media changes. The cultures were then fixed and stained for alkaline phosphatase activity.

BG01v cells = test: Inhibition of proliferation of BG01v cells by ErbB tyrosine kinase inhibitors, alkaline phosphatase staining; type: cell-based
Method: To examine the effect of known inhibitors of ErbB tyrosine kinases in hESCs, BG01v cells were plated in 6 well trays on […]™ diluted at 1:1000, in defined culture medium (DC) containing 100 ng/mL LongR3-IGF1, 8 ng/mL FGF2 and 1 ng/mL Activin A. On the next day, DMSO (carrier control), 50 nM-20 μM AG1478 (an ErbB1 inhibitor), or 100 nM-20 μM AG879 (an ErbB2 inhibitor) was added with fresh medium. The cells were cultured for an additional 5 days, with daily media changes. The cultures were then fixed and stained for alkaline phosphatase activity.

hESCs = test: hESC proliferation at physiological levels of insulin and IGF1, cell counting; type: cell-based, human; conditions: titrated about 0.2 to about 200 ng/mL, counting after 5 days
Method: Essentially all of the reported culture conditions for hESCs to date include supraphysiological levels of insulin, which can stimulate both IR and IGF1R. To distinguish the activities that insulin and insulin-substitutes exert, compared to IGF1, hESCs are cultured in defined media conditions in physiological levels of these growth factors. The concentrations of insulin and IGF1 are titrated from about 0.2 to about 200 ng/mL and cell proliferation is monitored by counting cells after 5 days. Cultures that expand successfully are serially passaged 5 times.

BG02 hESCs = test: Proliferation of hESCs growing in conditioned medium (CM) with AG825; type: cell-based
Text: FIGS. 6A-6F depict the inhibition of proliferation of BG02 cells grown in conditioned media (CM). […] The mean and range of normalized relative intensity is plotted (right).
(§1) Colony and cell-counting assays confirmed that LongR3-IGF1 and HRG played the major roles in self-renewal and proliferation in the context of one of the embodiments of the present invention (FIG. 6D, FIG. 6E). Phosphorylation of IGF1R, IR, […], ErbB2, and ErbB3 was also observed in both steady-state DC-HAIF cultures, and in starved cultures that were pulsed with DC-HAIF (FIG. 6F).

ErbB2 = target: T1, ErbB2 (Homo sapiens, UniProt P04626); test: Western blotting of ErbB2 autophosphorylation in starved/heregulin pulsed hESCs in DC-HAIF; type: cell-based
T1 construct: endogenous in cells; host or cells: human embryonic stem cells (hESCs) grown in DC-HAIF
Text: as §1

ES cells = test: Suspension cultures in various media, cell counting; type: cell-based; conditions: in all conditions (HAIF, HAI, HI)
Method: To determine if suspensions of ES cells could be cultured in the absence of FGF2 and/or Activin A, ES cells were cultured in a variety of media, with and without these factors. […] In addition, the cells in each media were successfully passaged with no morphological signs of differentiation.

[1] = test system: hES-derived pancreatic epithelial and endocrine type cells; test: Re-aggregation of dissociated stage 4 or stage 5 adherent cultures; type: cell-based, human; conditions: 10 μM
Method: Adherent cultures at either stage 4 (about d10-d14 into the differentiation protocol; pancreatic epithelial and endocrine type cells) or stage 5 (about day 16 to day 30 into the differentiation protocol; endocrine precursor and endocrine cells) were similarly dissociated into single cells, counted, and pelleted. The cell pellet was then resuspended in DMEM CMRL supplemented Pen/Strep and GLUTAMAX™, and 1X B27-supplement and DNase (50-100 μg/mL, Roche Diagnostics) and 0-2% FBS. […] Cells were equally distributed into 6-well plates and placed on a rotating platform at 100 rpm to 140 rpm form 4 hours to overnight substantially as described above.

BG02 cells = test: Suspension aggregates of BG02 cells in DC-HAIF with and without Y27632, cell counting; type: cell-based, human
Method: To attenuate the loss of cells after initial passaging in suspension, an inhibitor of apoptosis was added to the medium. Cells were passaged as in Example 12, except that Y-27632, an inhibitor of p160-Rho-associated coiled-coil kinase (ROCK), was added to the medium.
Suspension aggregates of BG02 cells were formed by seeding 2×10^6 single cells in 6-well dishes in 3 mL DC-HAIF medium, at 100 rpm on a rotating platform in an incubator (Table 4, Experiment A). 10 μM Y27632 ROCK inhibitor was added to test wells for the course of the experiment and the cultures observed daily and counted after 24 hours (day 1) and after 4 or 5 days. […] Cell counting confirmed that more viable cells were present in the presence of inhibitor (Table 4, Experiment A). This difference in cell number persisted throughout the course of the culture period, with more cells also observed on day 4, compared to cultures without inhibitor. As with previous suspension culture experiments, cells exposed to Y27632 could also be serially passaged, and maintained in an undifferentiated state (not shown). […]
Because of the enhanced survival and aggregation observed in the presence of Y27632, an experiment was performed to examine if it was possible to reduce the number of cells used to seed suspension cultures (Table 4, Experiment C). […] To determine if addition of a ROCK inhibitor would allow cell seeding at lower densities, a range of cell concentrations (from about 2×10^6 total cells down to about 1×10^5 total cells was used to seed suspension cultures in 6-well trays cells in 3 mL DC-HAIF. 10 μM Y27632 was added to all conditions, and the cell number and viability assessed on day 5. Successful aggregation and expansion was observed even at low seeding densities. An approximately 13 fold expansion of viable cells was observed even in cultures that were only seeded with 1×10^5 cells. Inhibition of ROCK with Y27632 therefore facilitated initial survival of hESCs at much lower densities in this suspension system.

[2] = test system: hES-derived cell aggregates; test: QPCR of endocrine progenitor markers after stage 3 with different noggin concentrations; type: cell-based, human; conditions: lower concentration (25 ng/mL vs 50 ng/mL) in stage 3; any given cell density
Method: Human ES cell aggregates and hES-derived cell aggregates, including d0 cell aggregates produced directly in differentiation media, were generated substantially as described above. After about five (5) days of differentiation through stages 1 and 2, the differentiating cell aggregates were pooled and re-aliquoted into individual wells at different seeding densities, e.g., a 28 mL suspension of foregut endoderm stage cell aggregate suspension was seeded or re-aliquoted at 4, 6, 8 or 10 mL per well (a 2.5-fold range of cell densities). This cell distribution was carried out in duplicate and one set of wells was fed with a stage 3 media (DMEM/PenStrep/GLUTAMAX™+1% B27 supplement (vol/vol)+0.25 uM KAAD-cyclopamine+3 nM TTNPB) containing noggin at 50 ng/mL and the other set of wells contained noggin at 25 ng/mL. Stage 3 proceeded for 3 days with daily media exchange. Cell samples were taken in duplicate for real-time QPCR analysis at the end of the three days of stage 3 (or about day 8) and again at after stage 4 (or about day 14).

[3] = morphology, alkaline phosphatase activity

T1 sequence (P04626 23-1255): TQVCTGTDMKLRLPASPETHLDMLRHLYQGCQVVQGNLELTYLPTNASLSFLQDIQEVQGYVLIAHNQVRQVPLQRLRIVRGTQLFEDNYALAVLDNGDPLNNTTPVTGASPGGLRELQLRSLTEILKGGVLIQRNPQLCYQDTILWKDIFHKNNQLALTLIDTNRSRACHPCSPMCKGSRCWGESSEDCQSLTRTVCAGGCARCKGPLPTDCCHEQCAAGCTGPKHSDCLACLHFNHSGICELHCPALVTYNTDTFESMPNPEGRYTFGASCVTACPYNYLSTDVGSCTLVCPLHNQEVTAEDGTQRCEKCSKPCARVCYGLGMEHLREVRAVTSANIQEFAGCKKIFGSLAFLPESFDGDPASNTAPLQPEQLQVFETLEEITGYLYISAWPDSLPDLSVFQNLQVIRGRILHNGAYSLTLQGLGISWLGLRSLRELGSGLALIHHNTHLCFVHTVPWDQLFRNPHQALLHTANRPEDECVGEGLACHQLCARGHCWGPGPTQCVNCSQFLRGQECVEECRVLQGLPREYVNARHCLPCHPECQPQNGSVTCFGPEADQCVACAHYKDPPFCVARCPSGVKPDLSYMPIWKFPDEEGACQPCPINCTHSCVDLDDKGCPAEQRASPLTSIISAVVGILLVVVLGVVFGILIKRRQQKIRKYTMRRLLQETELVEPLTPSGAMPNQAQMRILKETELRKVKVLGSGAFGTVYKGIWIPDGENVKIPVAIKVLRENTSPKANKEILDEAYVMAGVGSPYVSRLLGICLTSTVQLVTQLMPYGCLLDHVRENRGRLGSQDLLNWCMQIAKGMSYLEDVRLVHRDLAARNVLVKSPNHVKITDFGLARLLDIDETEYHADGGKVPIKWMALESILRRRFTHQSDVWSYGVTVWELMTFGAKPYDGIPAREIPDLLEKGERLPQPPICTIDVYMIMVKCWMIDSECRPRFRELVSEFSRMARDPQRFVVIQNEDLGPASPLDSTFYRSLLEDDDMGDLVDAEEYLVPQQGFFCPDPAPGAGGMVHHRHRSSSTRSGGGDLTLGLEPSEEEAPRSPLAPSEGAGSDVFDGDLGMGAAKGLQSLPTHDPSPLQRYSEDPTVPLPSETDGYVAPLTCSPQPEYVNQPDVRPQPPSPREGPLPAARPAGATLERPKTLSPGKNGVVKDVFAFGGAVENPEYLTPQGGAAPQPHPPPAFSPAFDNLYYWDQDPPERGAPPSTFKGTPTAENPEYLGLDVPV

For `CC(C)(C)c1cc(/C=C(\C#N)C(N)=S)cc(C(C)(C)C)c1O` [AG879], the proliferation (R1 mouse ES cells; 20 μM, 8 days) was “may have slowed proliferation”, the cell growth (R1 mouse ES cells; 50 μM, 8 days) was “substantially inhibited cell growth” and the “concentration required to inhibit proliferation, mESCs relative to BG01v cells” value (R1 mouse ES cells; mESCs vs BG01v cells grown in defined conditions) was ~10 ×. The “differentiation of mESCs grown in inhibitor” value (R1 mouse ES cells; [3]) was “did not appear to differentiate”, the cell growth (BG01v cells; 5 μM, 5 days) was “substantially inhibited cell growth; also recorded: substantially slowed cell growth” and the cell death (BG01v cells; 20 μM) was “caused cell death”. For the same molecule, the “differentiation of cultures grown in inhibitor” value (BG01v cells; [3]) was “did not appear to differentiate”.

In the case of “insulin: protein that binds to the insulin receptor”, the “expansion of hESC cultures” value (hESCs) is reported as “do not”.

With IGF1: insulin-like growth factor the “expansion of hESC cultures” value (hESCs) was “support the expansion of hESC cultures”.

In the case of `COc1cc2ncnc(Nc3cccc(Cl)c3)c2cc1OC` [AG1478], the “effect on cell proliferation” value (R1 mouse ES cells; 1-50 μM, 8 days, 10% FBS, 10% KSR, LIF) is reported as “no apparent affect on cell proliferation; also recorded: did not overtly inhibit proliferation” and the “effect on cell proliferation” value (BG01v cells; 50 nM-20 μM, 5 days) is reported as “neither DMSO nor AG1478 (50 nM-20 μM) had an apparent affect on cell proliferation; also recorded: did not appear to affect proliferation”.

In the case of `COc1cc(/C=C(\C#N)C(N)=O)cc(CSc2nc3ccccc3s2)c1O` [AG825], the cell death (BG02 hESCs) is reported as “without widespread cell death”, the “proliferation of hESCs” value (BG02 hESCs; 50 μM) is reported as “significantly inhibited proliferation” and the “autophosphorylation of ErbB2 at tyrosine-1248” value (ErbB2) is reported as “inhibited autophosphorylation of ErbB2 at tyrosine-1248; also recorded: inhibits ErbB2 Y1248 phosphorylation”.

`C[C@@H](N)[C@H]1CC[C@H](C(=O)Nc2ccncc2)CC1` [Y27632] was tested, and the “yield of cells generated by day 5” value (ES cells) was “increased the yield of cells”, the cell survival [1] was “supported cell survival” and the “initial survival and aggregation of hESCs in suspension culture” value (BG02 cells; 10 μM, compared to medium without inhibitor) was “much larger aggregates were formed; also recorded: enhanced initial survival and aggregation of hESCs; also recorded: enhancement of hESC aggregation”. For the same molecule, the “cell number when the aggregates were split again” value (BG02 cells; Expt. A, compared to cultures without inhibitor) was “almost twice as many cells were observed” and the “differentiation state, RT-PCR of pluripotency markers” value (BG02 cells; suspension culture in the presence of Y27632) was “remained undifferentiated”.

B1: noggin: recombinant human Noggin, BMP antagonist (protein, UniProt Q13253 28-232, looked up)
Noggin: QHYLHIRPAPSDNLPLVDLIEHPDPIFDPKEKDLNETLLRSLLGGHYDPGFMATSPPEDRPGGGGGAAGGAEDLAELDQLLRQRPSGAMPSEIKGLEFSEGLAQGKKQRLSKKLRRKLQMWLWSQTFCPVLYAWNDLGSRFWPRYVKVGSCFSKRSCSVPEGMVCKPSKSVHLTVLRWRCQRRGGQRCGWIPIQYPIISECKCSC
B1 was tested, and the “endocrine progenitor cell types, expression of NGN3 and NKX2-2” value [2] was “reduced expression of NGN3 and NKX2-2”.
